In ChEMBL document CHEMBL3885861, “Open TG-GATES”:

Organism: Rattus norvegicus
Assay: Open TG-GATES - Regimen: Daily Repeat
Assay type: toxicity, organism-based, Sprague-Dawley
Set-up: regimen Daily Repeat, gender Male, age 6 weeks
Conditions: in vivo, po, 100 mg/kg, route gavage, dose level Low; for APTT / Bas / Eos / Fbg / Hb / Ht / Lym / MCH / MCHC / MCV / Mono / Neu / PT / Plat / RBC / Ret / WBC: tissue Blood; for KIDNEY_L / KIDNEY_R / KIDNEY_TOTAL: tissue Kidney; for LIVER: tissue Liver; for A/G / ALP / ALT / AST / BUN / CRE / Ca / Cl / DBIL / GLC / IP / K / LDH / Na / PL / RALB / TBIL / TC / TG / TP / gamma-GTP: tissue Plasma

C[C@H]1O[C@H](O[C@H]2[C@H](O)[C@@H](O)[C@@H](O[C@H]3[C@H](O)[C@@H](O)C(O)O[C@@H]3CO)O[C@@H]2CO)[C@H](O)[C@@H](O)[C@@H]1N[C@H]1C=C(CO)[C@@H](O)[C@H](O)[C@H]1O (some centres not stated) [ACARBOSE]
TERMINAL_BW (72 h, time 3 day): 233.2 g | APTT (72 h, time 3 day): 17.1 s | Bas (72 h, time 3 day): 0% | Eos (72 h, time 3 day): 1% | Fbg (72 h, time 3 day): 279.2 mg/dL | Hb (72 h, time 3 day): 13.2 g/dL | Ht (72 h, time 3 day): 39.4% | Lym (72 h, time 3 day): 79.4% | MCH (72 h, time 3 day): 20.4 pg | MCHC (72 h, time 3 day): 33.5% | MCV (72 h, time 3 day): 61 fL | Mono (72 h, time 3 day): 2.6% | Neu (72 h, time 3 day): 15.4% | PT (72 h, time 3 day): 13.3 s | Plat (72 h, time 3 day): 126 x10_4/uL | RBC (72 h, time 3 day): 646.8 x10_4/ul | Ret (72 h, time 3 day): 6.7% | WBC (72 h, time 3 day): 97.6 x10_2/uL | KIDNEY_L (72 h, time 3 day): 1 g | KIDNEY_R (72 h, time 3 day): 1 g | KIDNEY_TOTAL (72 h, time 3 day): 2.1 g | LIVER (72 h, time 3 day): 11.3 g | A/G (72 h, time 3 day): 0.9 | ALP (72 h, time 3 day): 1544.2 IU/L | ALT (72 h, time 3 day): 40.2 IU/L | AST (72 h, time 3 day): 70.2 IU/L | BUN (72 h, time 3 day): 13.8 mg/dL | CRE (72 h, time 3 day): 0.2 mg/dL | Ca (72 h, time 3 day): 10.7 mg/dL | Cl (72 h, time 3 day): 103.8 meq/L | DBIL (72 h, time 3 day): 0.01 mg/dL | GLC (72 h, time 3 day): 182 mg/dL | IP (72 h, time 3 day): 7.5 mg/dL | K (72 h, time 3 day): 3.9 meq/L | LDH (72 h, time 3 day): 84.2 IU/L | Na (72 h, time 3 day): 140.6 meq/L | PL (72 h, time 3 day): 142.4 mg/dL | RALB (72 h, time 3 day): 2.6 g/dL | TBIL (72 h, time 3 day): 0.056 mg/dL | TC (72 h, time 3 day): 72.2 mg/dL | TG (72 h, time 3 day): 101.8 mg/dL | TP (72 h, time 3 day): 5.6 g/dL | gamma-GTP (72 h, time 3 day): 1 IU/L | TERMINAL_BW ([…], time 7 day): 267.4 g | TERMINAL_BW ([…], time 14 day): 335.4 g | TERMINAL_BW ([…], time 28 day): 407.8 g | APTT ([…], time 7 day): 17.6 s | Bas ([…], time 7 day): 0% | Eos ([…], time 7 day): 1% | Fbg ([…], time 7 day): 291.8 mg/dL | Hb ([…], time 7 day): 13.8 g/dL | Ht ([…], time 7 day): 40.9% | Lym ([…], time 7 day): 73.6% | MCH ([…], time 7 day): 21.2 pg | MCHC ([…], time 7 day): 33.6% | MCV ([…], time 7 day): 63 fL | Mono ([…], time 7 day): 3% | Neu ([…], time 7 day): 21.6% | PT ([…], time 7 day): 12.9 s | Plat ([…], time 7 day): 130.6 x10_4/uL | RBC ([…], time 7 day): 649.8 x10_4/ul | Ret ([…], time 7 day): 6.1% | WBC ([…], time 7 day): 81.1 x10_2/uL | APTT ([…], time 14 day): 17.6 s | Bas ([…], time 14 day): 0% | Eos ([…], time 14 day): 1.4% | Fbg ([…], time 14 day): 290.2 mg/dL | Hb ([…], time 14 day): 14.9 g/dL | Ht ([…], time 14 day): 44.1% | Lym ([…], time 14 day): 80.6% | MCH ([…], time 14 day): 20.7 pg | MCHC ([…], time 14 day): 33.7% | MCV ([…], time 14 day): 61.4 fL | Mono ([…], time 14 day): 2.6% | Neu ([…], time 14 day): 15% | PT ([…], time 14 day): 13.2 s | Plat ([…], time 14 day): 126.6 x10_4/uL | RBC ([…], time 14 day): 719.2 x10_4/ul | Ret ([…], time 14 day): 4.4% | WBC ([…], time 14 day): 98.7 x10_2/uL | APTT ([…], time 28 day): 18.7 s | Bas ([…], time 28 day): 0% | Eos ([…], time 28 day): 1% | Fbg ([…], time 28 day): 301 mg/dL | Hb ([…], time 28 day): 15.3 g/dL | Ht ([…], time 28 day): 44% | Lym ([…], time 28 day): 78.8% | MCH ([…], time 28 day): 19.6 pg | MCHC ([…], time 28 day): 34.7% | MCV ([…], time 28 day): 56.4 fL | Mono ([…], time 28 day): 1.4% | Neu ([…], time 28 day): 17.4% | PT ([…], time 28 day): 13.3 s | Plat ([…], time 28 day): 103.6 x10_4/uL | RBC ([…], time 28 day): 780.8 x10_4/ul | Ret ([…], time 28 day): 2.4% | WBC ([…], time 28 day): 101.5 x10_2/uL | KIDNEY_L ([…], time 7 day): 1.1 g | KIDNEY_R ([…], time 7 day): 1.1 g | KIDNEY_TOTAL ([…], time 7 day): 2.2 g | KIDNEY_L ([…], time 14 day): 1.3 g | KIDNEY_R ([…], time 14 day): 1.3 g | KIDNEY_TOTAL ([…], time 14 day): 2.6 g | KIDNEY_L ([…], time 28 day): 1.5 g | KIDNEY_R ([…], time 28 day): 1.4 g | KIDNEY_TOTAL ([…], time 28 day): 2.9 g | LIVER ([…], time 7 day): 12.2 g | LIVER ([…], time 14 day): 15.3 g | LIVER ([…], time 28 day): 16.8 g | A/G ([…], time 7 day): 0.9 | ALP ([…], time 7 day): 1544.4 IU/L | ALT ([…], time 7 day): 44 IU/L | AST ([…], time 7 day): 73.2 IU/L | BUN ([…], time 7 day): 15.8 mg/dL | CRE ([…], time 7 day): 0.2 mg/dL | Ca ([…], time 7 day): 10.9 mg/dL | Cl ([…], time 7 day): 104.2 meq/L | DBIL ([…], time 7 day): 0.008 mg/dL | GLC ([…], time 7 day): 176.4 mg/dL | IP ([…], time 7 day): 7.4 mg/dL | K ([…], time 7 day): 3.8 meq/L | LDH ([…], time 7 day): 76.8 IU/L | Na ([…], time 7 day): 141.8 meq/L | PL ([…], time 7 day): 148.4 mg/dL | RALB ([…], time 7 day): 2.6 g/dL | TBIL ([…], time 7 day): 0.052 mg/dL | TC ([…], time 7 day): 74.6 mg/dL | TG ([…], time 7 day): 103.6 mg/dL | TP ([…], time 7 day): 5.7 g/dL | gamma-GTP ([…], time 7 day): 0.8 IU/L | A/G ([…], time 14 day): 0.8 | ALP ([…], time 14 day): 1438.4 IU/L | ALT ([…], time 14 day): 36.2 IU/L | AST ([…], time 14 day): 62.8 IU/L | BUN ([…], time 14 day): 16 mg/dL | CRE ([…], time 14 day): 0.2 mg/dL | Ca ([…], time 14 day): 10.9 mg/dL | Cl ([…], time 14 day): 104.2 meq/L | DBIL ([…], time 14 day): 0.01 mg/dL | GLC ([…], time 14 day): 182 mg/dL | IP ([…], time 14 day): 6.7 mg/dL | K ([…], time 14 day): 4.2 meq/L | LDH ([…], time 14 day): 119.4 IU/L | Na ([…], time 14 day): 141.8 meq/L | PL ([…], time 14 day): 153.4 mg/dL | RALB ([…], time 14 day): 2.7 g/dL | TBIL ([…], time 14 day): 0.052 mg/dL | TC ([…], time 14 day): 75.4 mg/dL | TG ([…], time 14 day): 146.8 mg/dL | TP ([…], time 14 day): 6 g/dL | gamma-GTP ([…], time 14 day): 1 IU/L | A/G ([…], time 28 day): 0.8 | ALP ([…], time 28 day): 1221 IU/L | ALT ([…], time 28 day): 36.8 IU/L | AST ([…], time 28 day): 66.2 IU/L | BUN ([…], time 28 day): 17 mg/dL | CRE ([…], time 28 day): 0.2 mg/dL | Ca ([…], time 28 day): 10.8 mg/dL | Cl ([…], time 28 day): 104.8 meq/L | DBIL ([…], time 28 day): 0.018 mg/dL | GLC ([…], time 28 day): 179.8 mg/dL | IP ([…], time 28 day): 6.4 mg/dL | K ([…], time 28 day): 4.1 meq/L | LDH ([…], time 28 day): 79.6 IU/L | Na ([…], time 28 day): 142.4 meq/L | PL ([…], time 28 day): 149.2 mg/dL | RALB ([…], time 28 day): 2.8 g/dL | TBIL ([…], time 28 day): 0.056 mg/dL | TC ([…], time 28 day): 70 mg/dL | TG ([…], time 28 day): 156 mg/dL | TP ([…], time 28 day): 6.2 g/dL | gamma-GTP ([…], time 28 day): 1 IU/L
